The assay concerns the target T1, PfCRT variant D368A (Plasmodium falciparum, UniProt Q9N623, A220S/D368A/I356T/K76T/M74I/N326S/N75E/Q271E/R371I).
T1 sequence (Q9N623 1-424 M74I/N75E/K76T/A220S/Q271E/N326S/I356T/D368A/R371I): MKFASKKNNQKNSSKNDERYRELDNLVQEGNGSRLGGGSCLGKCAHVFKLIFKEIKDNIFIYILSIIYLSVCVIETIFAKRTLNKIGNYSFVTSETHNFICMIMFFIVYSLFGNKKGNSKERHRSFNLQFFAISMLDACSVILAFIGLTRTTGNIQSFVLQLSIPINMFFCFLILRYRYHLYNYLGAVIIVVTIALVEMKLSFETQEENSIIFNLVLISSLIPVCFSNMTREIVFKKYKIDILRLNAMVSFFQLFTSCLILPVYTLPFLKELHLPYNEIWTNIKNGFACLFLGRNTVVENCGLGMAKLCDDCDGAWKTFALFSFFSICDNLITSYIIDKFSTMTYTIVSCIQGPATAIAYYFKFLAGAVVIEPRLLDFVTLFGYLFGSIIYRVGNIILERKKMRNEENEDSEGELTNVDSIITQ
Description: CQ uptake assay, oocytes expressing D368A. It is filed as cell-based. The procedure:
Site-directed mutagenesis of PfCRT^Dd2 was performed as described using the megaprimer method with overlap extension[21],[54]. The primer pairs used are listed in Supplementary Table 6. Please note that a codon-optimized and oocyte-adapted version of PfCRT^Dd2 was used[22] (Supplementary Fig. 16). The resulting DNA fragment was cloned into the SP64T expression vector and verified by sequencing.
Oocytes were obtained as described previously. Briefly, adult (>2 years old) female X. laevis frogs (NASCO) were anesthetized in a cooled solution of ethyl 3-amino benzoate methanesulfonate (0.1%, w/v), followed by a surgical removal of parts of the ovary. The ovary lobes were carefully dissected and small pieces of oocytes were incubated in Ca^2+-free ND96 buffer (96 mM NaCl, 2 mM KCl, 1 mM MgCl2 buffered with 5 mM HEPES/NaOH, pH 7.5) supplemented with collagenase D (0.1%, w/v; Roche), BSA (0.5%, w/v), and 9 mm Na2HPO4 at 18 °C for 14-16 h while gentle shaking. After incubation, the oocytes were carefully washed several times with ND96 buffer (96 mM NaCl, 2 mM KCl, 1.8 mM CaCl2, 1 mM MgCl2 buffered with 5 mM HEPES/NaOH, pH 7.5) supplemented with 100 mg l^−1 gentamycin). Defolliculated and healthy-looking stage V-VI oocytes were manually selected for RNA microinjection. The RNA was generated as following: The codon-optimized sequences of PfCRT variants were cloned into the pSP64T expression vector. After vector linearization using the restriction endonucleases BamHI or SalI (New England Biolabs), transcription was performed using the in vitro SP6 mMessage mMachine Kit (Ambion)[34]. The obtained RNA was kept at −80 °C and diluted with nuclease-free water to a concentration of 0.6 μg μl^−1. Precision-bore glass capillary tubes (3.5-inch glass capillaries; Drummond Scientific Co.) were pulled on a vertical puller (P-87 Flaming/Brown micropipette puller, Sutter Instrument Co.), graduated, and placed on a microinjector (Nanoject II Auto-Nanoliter Injector, Drummond Scientific Co.). 50 nl of nuclease-free water alone (control oocytes) or 50 nl of 0.6 μg μl^−1 RNA were injected under stereomicroscopic control. Injected oocytes were incubated for 46–72 h at 18 °C with twice-daily buffer changes before usage in experiments.
Drug uptake assays were performed as described previously[21],[22],[24],[34]. […] The direction of radio-labeled drug transport is here from the mostly acidic extracellular solution (pH 4.5 or 6.0, as indicated) into the oocyte cytosol (pH ∼ 7.2), which corresponds to the efflux of drug from the acidic digestive vacuole (pH 5.2) into the parasite cytoplasm (pH 7.2). The topology of PfCRT in the oolemma is such that both the N- and C-terminus face the extracellular milieu[3],[22]. In the parasite, the N- and C-terminus face the lumen of the digestive vacuole. CQ uptake kinetics were performed by incubating oocytes in ND96 buffer adjusted to a pH of 4.5, 5.0, 5.5, or 6.0 and supplemented with 50 nM [^3H]CQ and one of 7 different CQ concentrations (10 µM, 50 µM, 100 µM, 200 µM, 300 µM, 400 µM, 500 µM CQ). The reaction was stopped at the 60 min time point, which is in the linear uptake range[22],[34] (Supplementary Fig. 17). […] The radioactivity of each sample was measured using a liquid scintillation analyzer Tri-Carb 4910 TR (PerkinElmer). Oocytes that were injected with water instead of RNA were analyzed in parallel, representing the uptake of a drug by diffusion and/or endogenous permeation pathways. […]

[1] abbreviates: D368A, 50 µM CQ, 1 h, mean ± SEM.

Where “and” joins values, the source holds several entries; their conditions need not be identical. Identical values can stand only once.

Turning to `CCN(CC)CCCC(C)Nc1ccnc2cc(Cl)ccc12` (centres unmarked) [CQ, chloroquine], under setting [1], the “Activity at pH 4.5” value is recorded as 1.36 ± 0.32 pmol h-1 oocyte-1 and the “Activity at pH 6.0” value was 3.05 ± 0.29 pmol h-1 oocyte-1. Under “D368A, CQ transport at pH 4.5 / pH 6.0”, the R-value turned out to be 0.44 ± 0.08. For the same compound, where the note is “pH 4.5, single replicates, Fig 1d left”, the “D368A transport activity pH 4.5” value is 2.14 pmol oocyte-1 h-1 and 0.90 pmol oocyte-1 h-1 and 1.05 pmol oocyte-1 h-1. Further, the “D368A transport activity pH 6.0” value (pH 6.0, single replicates, Fig 1d left) was 3.49 pmol oocyte-1 h-1 and 3.31 pmol oocyte-1 h-1 and 2.36 pmol oocyte-1 h-1.

(Values after PMC10349806 (Nature Communications, 2023).)
